How the values were obtained:
[1] = target: HiBiT tagged Wee1 (Homo sapiens, UniProt P30291); assay: Wee1 protein degradation assay (HiBiT assay); format: cell-based; settings: engineered HT-1080 cells, 20 hours; for Dmax: maximum percentage of Wee1 degradation, read-out: HiBiT Wee1: Dmax
[2] = system: NCI-H1048 cells; assay: NCI-H1048 cell proliferation assay (CTG assay); format: cell-based; settings: Homo sapiens, 120 hours, read-out: CTG cellular assay_H1048: IC50
Description: NCI-H1048 Cell Proliferation Assay (CTG Assay) The following is an example of an assay that can be used to determine the anti-proliferative activity of Wee1 PROTACs in a small cell lung cancer cell line, NCI-H1048 (ATCC Cat #CRL-5853). This cell line was cultured in RPMI-1640 medium supplemented with 10% FBS. About 1,200 NCI-H1048 cells in 50 μL of culture medium were seeded into a 384-well plate (Cat #3764, Corning), pre-spotted with compounds using the Echo 650 liquid handler (Beckman). The dose-response-curve (DRC) typically has 10-points with a highest concentration at 10 μM, and half-log diluted to as low as 0.316 nM, plus a DMSO control. Assay plates were incubated at 37° C. with 5% CO2 for 120 hours. After that, 20 μL of the CellTiter-Glo (CTG) Luminescent Cell Viability Assay Reagent (Cat #G7573, Promega) was added to each well and incubated at room temperature for 30 minutes. Luminescence was then measured with Pherastar microplate reader (BMG Labtech). All percentage of cell growth inhibition curves were processed using Collaborative Drug Discovery Vault.
Cell viability reads in compound-treated wells were normalized to that of DMSO control and expressed as Percent of Control (PoC, y). A four Parameter Logistic Model was used to determine the compound's EC50 and DC50, using the following equation: […]

HiBiT tagged Wee1, sequence (P30291 whole entry): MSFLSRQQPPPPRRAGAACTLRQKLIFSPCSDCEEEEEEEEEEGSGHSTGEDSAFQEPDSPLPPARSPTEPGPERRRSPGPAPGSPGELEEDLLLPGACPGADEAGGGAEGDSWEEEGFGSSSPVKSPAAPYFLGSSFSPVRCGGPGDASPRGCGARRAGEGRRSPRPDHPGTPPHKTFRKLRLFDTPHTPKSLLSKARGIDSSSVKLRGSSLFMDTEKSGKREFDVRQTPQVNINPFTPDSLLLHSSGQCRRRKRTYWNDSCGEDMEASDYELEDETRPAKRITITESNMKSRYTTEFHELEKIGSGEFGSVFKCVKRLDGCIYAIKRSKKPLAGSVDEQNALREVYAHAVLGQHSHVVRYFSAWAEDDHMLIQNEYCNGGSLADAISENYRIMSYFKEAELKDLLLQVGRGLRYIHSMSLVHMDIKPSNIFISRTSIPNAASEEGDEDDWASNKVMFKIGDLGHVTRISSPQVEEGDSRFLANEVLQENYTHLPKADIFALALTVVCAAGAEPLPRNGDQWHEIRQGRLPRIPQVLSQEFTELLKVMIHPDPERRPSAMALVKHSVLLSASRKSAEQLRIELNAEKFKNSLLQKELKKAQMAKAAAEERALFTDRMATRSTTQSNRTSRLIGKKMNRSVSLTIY

| Structure (SMILES) | DC50 [1] | Dmax [1] | IC50 [2] |
| --- | --- | --- | --- |
| C=CCn1c(=O)c2cnc(Nc3ccc(N4CCC(CN(C)C5CCN(c6ccc(NC7CCC(=O)NC7=O)cc6F)CC5)CC4)cc3)nc2n1-c1cccc(C(C)(C)O)n1 (centres unmarked) [Compound 91] | < 100 nM | > 75% | ≤ 25 nM |
| C=CCn1c(=O)c2cnc(Nc3ccc(N4CCC(CN5CCN(c6ccc(NC7CCC(=O)NC7=O)cc6)CC5)CC4)cc3)nc2n1-c1cccc(C(C)(C)O)n1 (centres unmarked) [Compound 92] | < 100 nM | > 75% | ≤ 25 nM |
| C=CCn1c(=O)c2cnc(Nc3ccc(N4CCN(C5CCN(c6ccc(NC7CCC(=O)NC7=O)cc6F)CC5)CC4)cc3)nc2n1-c1cccc(C(C)(C)O)n1 (centres unmarked) [Compound 93] | < 100 nM | > 75% | ≤ 25 nM |
| C=CCn1c(=O)c2cnc(Nc3ccc(N4CCC(CN5CCC(c6ccc7c(N8CCC(=O)NC8=O)nn(C)c7c6)CC5)CC4)cc3)nc2n1-c1cccc(C(C)(C)O)n1 [Compound 95] | < 100 nM | > 75% | ≤ 25 nM |
| C=CCn1c(=O)c2cnc(Nc3ccc(N4CCC(CN5CCC(c6ccc7c(C8CCC(=O)NC8=O)nn(C)c7c6)CC5)CC4)cc3)nc2n1-c1cccc(C(C)(C)O)n1 (centres unmarked) [Compound 96] | < 100 nM | 50 to 75% | ≤ 25 nM |
| C=CCn1c(=O)c2cnc(Nc3ccc(C4CCN(CC5CCN(c6cccc7c6n(C)c(=O)n7C6CCC(=O)NC6=O)CC5)CC4)c(C)c3)nc2n1-c1cccc(C(C)(C)O)n1 (centres unmarked) [Compound 97] |  | 50 to 75% | ≤ 25 nM |
| C=CCn1c(=O)c2cnc(Nc3ccc(C4CCN(CC5CCN(c6ccc7c(N8CCC(=O)NC8=O)nn(C)c7c6)CC5)CC4)cc3)nc2n1-c1cccc(C(C)(C)O)n1 [Compound 104] | < 100 nM | > 75% | ≤ 25 nM |
| C=CCn1c(=O)c2cnc(Nc3ccc(N4CCN(CC5CCN(c6ccc7c(N8CCC(=O)NC8=O)nn(C)c7c6)CC5)CC4)cc3)nc2n1-c1cccc(C(C)(C)O)n1 [Compound 105] | < 100 nM | > 75% | ≤ 25 nM |
| C=CCn1c(=O)c2cnc(Nc3ccc(N4CCC(CN5CCN(c6ccc7c(C8CCC(=O)NC8=O)nn(C)c7c6)CC5)CC4)cc3)nc2n1-c1cccc(C(C)(C)O)n1 (centres unmarked) [Compound 106] | < 100 nM | > 75% | ≤ 25 nM |
| C=CCn1c(=O)c2cnc(Nc3ccc(C4CCN(CC5CCN(c6cccc7c6n(C)c(=O)n7C6CCC(=O)NC6=O)CC5)CC4)cc3)nc2n1-c1ccc2c(n1)[C@@](O)(CC)CC2 (some centres unmarked) [Compound 108] | < 100 nM | 50 to 75% | ≤ 25 nM |
| C=CCn1c(=O)c2cnc(Nc3ccc(C4CCN(CC5CCN(c6ccc(NC7CCC(=O)NC7=O)cc6F)CC5)CC4)cc3)nc2n1-c1ccc2c(n1)[C@@](O)(CC)CC2 (some centres unmarked) [Compound 109] | < 100 nM | 50 to 75% | ≤ 25 nM |
| C=CCn1c(=O)c2cnc(Nc3ccc(C4CCN(CC5CCN(c6ccc7c(C8CCC(=O)NC8=O)nn(C)c7c6)CC5)CC4)cc3)nc2n1-c1cccc(C(C)(C)O)n1 (centres unmarked) [Compound 111] | < 100 nM | 50 to 75% | ≤ 25 nM |
| C=CCn1c(=O)c2cnc(Nc3ccc(N4CCN(CC5CCN(c6ccc7c(N8CCC(=O)NC8=O)nn(C)c7c6)CC5)CC4)cc3)nc2n1-c1ccc2c(n1)[C@@](O)(CC)CC2 [Compound 114] | < 100 nM | > 75% | ≤ 25 nM |
| C=CCn1c(=O)c2cnc(Nc3ccc(N4CCN(CC5CCN(c6ccc7c(N8CCC(=O)NC8=O)nn(C)c7c6)CC5)CC4)cc3)nc2n1-c1ccc2c(n1)[C@](C)(O)CC2 [Compound 115] | < 100 nM | > 75% | ≤ 25 nM |
| C=CCn1c(=O)c2cnc(Nc3ccc(N4CCN(CC5CCN(c6cccc7c(C8CCC(=O)NC8=O)nn(C)c67)CC5)CC4)cc3)nc2n1-c1cccc(C(C)(C)O)n1 (centres unmarked) [Compound 117] | < 100 nM | > 75% | ≤ 25 nM |
| C=CCn1c(=O)c2cnc(Nc3ccc(N4CCC(CN5CCN(c6ccc(NC7CCC(=O)NC7=O)cc6F)CC5)CC4)cc3)nc2n1-c1ccc2c(n1)[C@@](O)(CC)CC2 (some centres unmarked) [Compound 119] | < 100 nM | > 75% | ≤ 25 nM |

— patent publication US20250049798A1, “WEE1 PROTEIN KINASE DEGRADATION AGENT AND USE THEREOF” (HANGZHOU GLUBIO PHARMACEUTICAL CO. LTD., priority 2021, published 2025)
